Reference: US11479556B1, “Bifunctional compounds for degrading BTK via ubiquitin proteosome pathway” (NURIX THERAPEUTICS, INC., priority 2018, dated 2022)

Molecular target: T1, BTK (Homo sapiens, UniProt Q06187)
T1 construct: endogenous in cells; host or cells: TMD8 cells
Experiment: Cellular BTK HTRF assay (BTK degradation) in TMD8 cells
Type: cell-based
Settings: four hours incubation, Total-BTK HTRF relative to DMSO-treated cells
Description: Example 66: BTK Degradation Assay
TMD8 cells were obtained from Tokyo Medical and Dental University and were grown in alpha-MEM (Fisher 12571063) supplemented with 10% heat-inactivated FBS (Corning Premium Fetal Bovine Serum from Fisher, MT35015CV).
Compounds of the present invention were added to 50,000 TMD8 cells in round-bottom 96 well plates with a final DMSO concentration of […] and were incubated at 37° C. 5% CO2 for four hours. BTK levels were determined using Cisbio Total-BTK HTRF ([…] Time-Resolved Fluorescence) kit (63ADK064PEG) according to manufacturer's protocol. Briefly, cells were incubated in 1× supplied lysis buffer for 30 minutes. In an opaque white low volume 96 well plate (Cisbio, 66PL96005), cell lysate was combined with two different specific BTK antibodies, one conjugated with Eu^3+-Cryptate FRET donor and one conjugated with d2 FRET acceptor. Assay controls include wells containing cell lysate with only the Eu^3+-Cryptate FRET donor antibody and wells containing both HTRF antibodies and lysis buffer without cells or control lysate provided by Cisbio. HTRF ratio was calculated as (acceptor signal at 665 nm/donor signal at 620 nm)×10^4. Background HTRF levels were determined from the control well containing the donor, but no acceptor, antibody. Background HTRF levels were subtracted from all samples. Readouts were reported as HTRF levels relative to HTRF levels of DMSO-treated cells. Four-parameter non-linear regressions were performed in GraphPad Prism 7.02 to obtain DC50 values. DC50 values are provided in Table 3, wherein A<5.0 nM, 5.0 nM≤B≤15 nM, and 15 nM<C.

T1 sequence (Q06187 whole entry): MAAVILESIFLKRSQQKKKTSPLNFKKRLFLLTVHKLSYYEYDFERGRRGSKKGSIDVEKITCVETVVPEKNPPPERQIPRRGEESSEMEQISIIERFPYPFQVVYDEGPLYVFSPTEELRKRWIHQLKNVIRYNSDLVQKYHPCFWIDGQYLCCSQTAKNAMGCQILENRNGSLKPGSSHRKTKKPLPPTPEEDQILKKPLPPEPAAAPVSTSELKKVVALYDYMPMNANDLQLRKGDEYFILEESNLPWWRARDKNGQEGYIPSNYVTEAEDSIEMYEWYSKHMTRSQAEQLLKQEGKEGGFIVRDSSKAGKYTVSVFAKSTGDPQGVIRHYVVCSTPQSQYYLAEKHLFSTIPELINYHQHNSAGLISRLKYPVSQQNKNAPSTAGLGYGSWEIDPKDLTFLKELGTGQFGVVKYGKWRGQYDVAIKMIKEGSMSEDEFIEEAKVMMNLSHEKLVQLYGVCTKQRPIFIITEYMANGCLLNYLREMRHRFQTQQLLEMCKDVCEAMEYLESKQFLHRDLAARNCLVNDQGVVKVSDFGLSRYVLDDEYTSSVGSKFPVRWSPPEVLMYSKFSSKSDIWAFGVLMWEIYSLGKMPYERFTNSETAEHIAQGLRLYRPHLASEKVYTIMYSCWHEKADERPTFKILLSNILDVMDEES

Row | SMILES | DC50
1 | CN1CCN([C@@H]2CCCN(c3cnc(C(N)=O)c(Nc4ccc(N5CC6(CN(CCCc7cccc8c7CN(C7CCC(=O)NC7=O)C8=O)C6)C5)cc4)n3)C2)C1=O (stereo partly shown) [Compound 33] | < 5 nM
2 | NC(=O)c1ncc(N2CCC[C@H](N3CCCC3=O)C2)nc1Nc1ccc(C2CN(C[C@@H]3CCN(c4ccc5c(c4)C(=O)N(C4CCC(=O)NC4=O)C5=O)C3)C2)cc1 (stereo partly shown) [Compound 140] | < 5 nM
3 | CN1CCN([C@@H]2CCCN(c3cnc(C(N)=O)c(Nc4ccc(N5CC6CN(Cc7ccc8c(c7)C(=O)N(C7CCC(=O)NC7=O)C8=O)CC6C5)cc4)n3)C2)C1=O (stereo partly shown) [Compound 76] | 5 to 15 nM
4 | Cn1c(-c2ccc(N3CCC(CN4CCC(c5ccc(Nc6nc(N7CCC[C@H](N8CCCC8=O)C7)cnc6C(N)=O)cc5)CC4)CC3)cc2)nn(C2CCC(=O)NC2=O)c1=O (stereo partly shown) [Compound 143] | < 5 nM
5 | CN1CCN([C@@H]2CCCN(c3cnc(C(N)=O)c(Nc4ccc(C5CCN(C[C@H]6CCN(c7ccc8c(=O)n(C9CCC(=O)NC9=O)ccc8c7)C6)CC5)cc4)n3)C2)C1=O (stereo partly shown) [Compound 134] | < 5 nM
6 | CN1CCN([C@@H]2CCCN(c3cnc(C(N)=O)c(Nc4ccc(C5CN(CCCCc6cccc7c6CN(C6CCC(=O)NC6=O)C7=O)C5)cc4)n3)C2)C1=O (stereo partly shown) [Compound 36] | 5 to 15 nM
7 | CN1CCN([C@H]2CCCN(c3cnc(C(N)=O)c(Nc4ccc(N5CCN(CC#Cc6ccc7c(c6)C(=O)N(C6CCC(=O)NC6=O)C7)CC5)cc4)n3)C2)C1=O (stereo partly shown) [Compound 98] | < 5 nM
8 | CN1CCN([C@@H]2CCCN(c3cnc(C(N)=O)c(Nc4ccc(C5CCN(C(=O)COc6cccc7c6C(=O)N(C6CCC(=O)NC6=O)C7=O)CC5)cc4)n3)C2)C1=O (stereo partly shown) [Compound 158] | 5 to 15 nM
9 | CN1CCN([C@H]2CCCN(c3cnc(C(N)=O)c(Nc4ccc(C5(C)CCN([C@H]6C[C@H](Nc7cccc8c7C(=O)N(C7CCC(=O)NC7=O)C8=O)C6)CC5)cc4)n3)C2)C1=O (stereo partly shown) [Compound 103] | < 5 nM

Other lines, results leading:

Row | DC50 | SMILES
10 | 5 to 15 nM | NC(=O)c1ncc(N2CCCCC2)nc1Nc1ccc(C2CCN(CC3CCN(c4ncc(C(=O)NC5CCC(=O)NC5=O)o4)CC3)CC2)cc1 (stereo not shown) [Compound 191]
11 | > 15 nM | NC(=O)c1ncc(-n2ccc(C(F)(F)F)n2)nc1Nc1ccc(C2CCN(CC3CCN(c4ccc5c(=O)n(C6CCC(=O)NC6=O)ccc5c4)CC3)CC2)cc1 (stereo not shown) [Compound 127]
12 | < 5 nM | CN1CCN([C@@H]2CCCN(c3cnc(C(N)=O)c(Nc4ccc(C5CN(CC6CCN(c7ccc8c(=O)n(C9CCC(=O)NC9=O)ccc8c7)CC6)C5)cc4)n3)C2)C1=O (stereo partly shown) [Compound 69]
13 | < 5 nM | CC1CCN([C@H]2CCCN(c3cnc(C(N)=O)c(Nc4ccc(C5CCN(C[C@@H]6CCN(c7ccc(-c8nn(C9CCC(=O)NC9=O)c(=O)n8C)cc7)C6)CC5)cc4)n3)C2)C1=O (stereo partly shown) [Compound 142]
14 | < 5 nM | NC(=O)c1ncc(N2CCC[C@@H](CO)C2)nc1Nc1ccc(C2CCN(CC3CCN(c4ccc(NC5CCC(=O)NC5=O)cn4)CC3)CC2)cc1 (stereo partly shown) [Compound 170]
15 | > 15 nM | CN1CCN([C@H]2CCCN(c3cnc(C(N)=O)c(Nc4ccc(N5CCC6(CC5)CCN(c5ccc7c(c5)C(=O)N(C5CCC(=O)NC5=O)C7=O)CC6)cn4)n3)C2)C1=O (stereo partly shown) [Compound 81]
16 | 5 to 15 nM | NC(=O)c1ncc(N2CCC(C(=O)O)CC2)nc1Nc1ccc(C2CCN(C[C@H]3CCN(c4ccc5c(c4)C(=O)N(C4CCC(=O)NC4=O)C5=O)C3)CC2)cc1 (stereo partly shown) [Compound 159]
17 | < 5 nM | CN1CCN([C@@H]2CCCN(c3cnc(C(N)=O)c(Nc4ccc(N5CCN(C[C@H]6CCN(c7ccc8c(c7)C(=O)N(C7CCC(=O)NC7=O)C8=O)C6)CC5)cc4)n3)C2)C1=O (stereo partly shown) [Compound 42]
18 | > 15 nM | CN1CCN([C@@H]2CCCN(c3cnc(C(N)=O)c(Nc4ccc(N5CCN(Cc6ccc7c(c6)C(=O)N(C6CCC(=O)NC6=O)C7=O)CC5)cc4)n3)C2)C1=O (stereo partly shown) [Compound 100]
19 | < 5 nM | CN1CCN([C@@H]2CCCN(c3cnc(C(N)=O)c(Nc4ccc(C5CCN(CC6CCN(c7ccc(-c8nn(C9CCC(=O)NC9=O)c(=O)n8C)cc7)CC6)CC5)cc4)n3)C2)C1=O (stereo partly shown) [Compound 121]
